Measurements as given in publication PMC4222822, “Discovery and Characterization of a Potent and Selective Inhibitor of Aedes aegypti Inward Rectifier Potassium Channels” (PLoS ONE, 2014).
Like-named read-outs stand apart in the source and are kept apart here.

Molecular target: AeKir1 (Aedes aegypti, UniProt L0EQS9)
Assay: Tl+ flux assay in T-REx-HEK293-AeKir1 cells
Format: cell-based
Procedure: Tl^+ flux assays were performed essentially as described previously, [18], [19]. Briefly, stably transfected T-Rex-HEK-293 cells expressing AeKir1 channels were cultured overnight in 384-well plates (20,000 cells/20 µL/well black-walled, clear-bottomed BD PureCoat amine-coated plates (BD, Bedford, MA) with a plating media containing DMEM, 10% dialyzed FBS and 1 µg/mL tetracycline. The next day, the cell culture medium was replaced with a dye-loading solution containing assay buffer (Hanks Balanced Salt Solution with 20 mM HEPES, pH 7.3), 0.01% (w/v) Pluronic F-127 (Life Technologies, Carlsbad, CA), and 1.2 µM of the thallium-sensitive dye Thallos-AM (TEFlabs, Austin, TX). Following 1 hr incubation at room temperature, the dye-loading solution was washed from the plates and replaced with 20 µL/well of assay buffer. The plates were transferred to a Hamamatsu Functional Drug Screening System 6000 (FDSS6000; Hamamatsu, Hamamatsu (or Bridgewater, NJ), Japan) where 20 µL/well of test compounds in assay buffer (as prepared below) were added and allowed to incubate with the cells for 20 min. After the incubation period, a baseline recording was collected at 1 Hz for 10 s (excitation 470±20 nm, emission 540±30 nm) followed by a Tl^+ stimulus buffer addition (10 µL/well) and data collection for an additional 4 min. The Tl^+ stimulus buffer contains in (mM) 125 NaHCO3, 1.8 CaSO4, 1 MgSO4, 5 glucose, 12 Tl2SO4, 10 HEPES, pH 7.4. For Tl^+ flux assays on the mammalian channels Kir2.x, Kir4.1 and Kir6.2/SUR1 expressing cells, the Tl^+ stimulus buffer contained 1.8 mM Tl2SO4. Also, Tl^+ flux assays on Kir3.1/3.2/mGlu8 expressing cell, required addition of an EC80 concentration of glutamate (Sigma-Aldrich, St. Louis, MO) with the Tl^+ stimulus buffer. The test compounds were transferred to daughter polypropylene 384-well plates (Greiner Bio-One, Monroe, NC) using an Echo555 liquid handler (Labcyte, Sunnyvale, CA), and then diluted into assay buffer to generate a 2X stock in 0.6% DMSO (0.3% final). For Tl^+ flux assays on Kir6.2/SUR1 expressing cells, test compounds were diluted in assay buffer containing diazoxide (250 µM final) to induce channel activation. Concentration-response curves (CRCs) were generated by screening compounds at 3-fold dilution series in 4-point (1 µM–30 µM) or 11-point (1 nM–30 µM) CRCs. Tl^+ flux data were analyzed as previously described, [21], [22] using a combination of Excel (Microsoft Corp, Redmond, WA) with XLfit add-in (IDBS, Guildford, Surrey, UK) and OriginPro (OriginLab, Northampton, MA) software. Raw data were opened in Excel and each data point in a given trace was divided by the first data point from that trace (static ratio) followed by subtraction of data points from control traces generated in the presence of vehicle controls. The slope of the fluorescence increase beginning 5 s after Tl^+ addition and ending 15 s after Tl^+ addition was calculated. To compare the effect of DMSO on AeKir1-mediated Tl^+ flux, a one-way ANOVA was performed with a Tukey's multiple comparison test. Prism software (GraphPad Software) was used to generate CRC from Tl^+ flux. Half-inhibition concentration (IC50) values were calculated from fits using a four parameter logistic equation.

Sequence of AeKir1 (L0EQS9 entry or part of it): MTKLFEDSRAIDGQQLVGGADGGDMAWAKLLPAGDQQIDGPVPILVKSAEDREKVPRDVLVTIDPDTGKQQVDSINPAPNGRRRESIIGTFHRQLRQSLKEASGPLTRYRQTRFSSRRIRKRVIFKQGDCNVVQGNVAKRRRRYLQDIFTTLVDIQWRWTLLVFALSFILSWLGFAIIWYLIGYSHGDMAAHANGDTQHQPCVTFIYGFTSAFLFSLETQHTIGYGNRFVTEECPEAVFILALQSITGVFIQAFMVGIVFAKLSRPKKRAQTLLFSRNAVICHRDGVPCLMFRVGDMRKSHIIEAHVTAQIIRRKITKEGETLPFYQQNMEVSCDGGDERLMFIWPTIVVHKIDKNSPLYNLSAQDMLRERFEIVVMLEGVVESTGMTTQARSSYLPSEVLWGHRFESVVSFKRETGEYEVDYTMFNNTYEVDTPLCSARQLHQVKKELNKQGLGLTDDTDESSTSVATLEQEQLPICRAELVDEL

## CCC(=O)N1c2ccc(S(=O)(=O)Nc3cccc(OC)c3)cc2CC1C (centres unmarked) [VU625, N-(3-methoxyphenyl)-2-methyl-1-propionylindoline-5-sulfonamide]
11-point CRCs, 95% CI: 0.25–0.39 µM, read-out: IC50 (AeKir1, Tl+ flux)
  IC50: 320 nM
Fig. 2C, 95% CI: 254.4–390.2 nM, n = 4 independent experiments in triplicate, read-out: IC50 (AeKir1, Tl+ flux)
  IC50: 315 nM
Table 2, southern amide SAR, 11-point CRCs on AeKir1 in Tl+ flux, triplicate on two separate days, read-out: IC50±SEM
  IC50: 360 ± 20 nM
Table S3, left-hand sulfonamide SAR, 11-point CRCs on AeKir1 in Tl+ flux, triplicate on two separate days, read-out: IC50
  IC50: 856 nM
Tl+ flux CRC, 95% CI: 0.8–1.2
  Hill coefficient (nH): 0.98
